Measurements taken from patent publication US20200031778A1, “NOVEL 5-SUBSTITUTED IMIDAZOLYLMETHYL DERIVATIVES” (Bayer CropScience Aktiengesellschaft, priority 2016, published 2020).

Legend:
[1] = system: Sphaerotheca fuliginea; assay: Example IX-C: in vivo preventive test on Sphaerotheca fuliginea (powdery mildew on cucurbits); settings: Podosphaera fuliginea, 360 h; compounds of formula IX; 500 ppm of active ingredient; gherkin plants, preventive spray; evaluated 15 days after inoculation; read-out: efficacy
Description: Example IX-C: In Vivo Preventive Test on Sphaerotheca Fuliginea (Powdery Mildew on Cucurbits)
(§1) The active ingredients are made soluble and homogenized in a mixture of Dimethyl sulfoxide/Acetone/Tween® 80 and then diluted in water to the desired concentration.
The young plants of gherkin are treated by spraying the active ingredient prepared as described above. Control plants are treated only with an aqueous solution of Acetone/Dimethyl sulfoxide/Tween® 80.
After 24 hours, the plants are contaminated by spraying the leaves with an aqueous suspension of Sphaerotheca fuliginea spores. The contaminated gherkin plants are incubated for 72 hours at 18° C. and at 100% relative humidity and then for 12 days at 20° C. and at 70-80% relative humidity.
The test is evaluated 15 days after the inoculation. 0% means an efficacy which corresponds to that of the control plants while an efficacy of 100% means that no disease is observed.

[2] = system: Septoria tritici; assay: Example IX-B: in vivo preventive test on Septoria tritici (leaf spot on wheat); settings: Zymoseptoria tritici, 576 h; compounds of formula IX; 500 ppm of active ingredient; wheat plants, preventive spray; evaluated 24 days after inoculation; read-out: efficacy
Description: Example IX-B: In Vivo Preventive Test on Septoria Tritici (Leaf Spot on Wheat)
as §1
(§2) The young plants of wheat are treated by spraying the active ingredient prepared as described above. Control plants are treated only with an aqueous solution of Acetone/Dimethyl sulfoxide/Tween® 80.
After 24 hours, the plants are contaminated by spraying the leaves with an aqueous suspension of Septoria tritici spores. The contaminated wheat plants are incubated for 72 hours at 18° C. and at 100% relative humidity and then for 21 days at 20° C. and at 90% relative humidity.
The test is evaluated 24 days after the inoculation. 0% means an efficacy which corresponds to that of the control plants while an efficacy of 100% means that no disease is observed.

[3] = Log P by HPLC on reversed phase columns (EEC directive 79/831 Annex V.A8; methods [a], [b], [c]); type: physicochemical; settings: for chromatographic logP: reversed phase HPLC column, method [a]: LC-UV, acidic range, 0.1% formic acid in water and acetonitrile as eluent (linear gradient from 10% to 95% acetonitrile)
In short: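 Log P derived from retention times, interpolated linearly between bracketing straight-chain alkan-2-ones (3–16 carbons) of known Log P. Eluents ran acetonitrile 10% to 95% against water with 0.1% formic acid ([a], acidic), 0.001 M ammonium acetate ([b], neutral) or 0.1% phosphoric acid ([c], acidic); UV read-out.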

[4] = system: Puccinia recondita; assay: Example IX-A: in vivo preventive test on Puccinia recondita (brown rust on wheat); settings: 264 h, compounds of formula IX, 500 ppm of active ingredient, wheat plants, preventive spray, evaluated 11 days after inoculation, read-out: efficacy
Description: Example IX-A: In Vivo Preventive Test on Puccinia Recondita (Brown Rust on Wheat)
as §1, §2
After 24 hours, the plants are contaminated by spraying the leaves with an aqueous suspension of Puccinia recondita spores. The contaminated wheat plants are incubated for 24 hours at 20° C. and at 100% relative humidity and then for 10 days at 20° C. and at 70-80% relative humidity.
The test is evaluated 11 days after the inoculation. 0% means an efficacy which corresponds to that of the control plants while an efficacy of 100% means that no disease is observed.

| Compound | pest or weed control at 500 ppm [2] [%] | chromatographic logP [3] | LogP [3] | other results |
| --- | --- | --- | --- | --- |
| N#Cc1cncn1CC(=O)c1ccc(Oc2ccc(Cl)nc2)nc1C(F)(F)F [IX-140] | 90 to 100 | 2.55 |  | pest or weed control at 500 ppm [1]: 90 to 100% |
| COc1ccc(Oc2ccc(C(=O)Cn3cncc3Cl)c(C)n2)c(Cl)c1 [IX-25] | 90 to 100 | 2.33 |  |  |
| O=C(Cn1cncc1Br)c1ccc(Oc2ccc(C(F)(F)F)cc2)c(Cl)c1 [IX-03] | 90 to 100 | 3.23 |  |  |
| CC(=O)c1cncn1CC(=O)c1ccc(Oc2ccc(C(F)(F)F)nc2)nc1C(F)(F)F [IX-133] | 90 to 100 | 2.6 |  |  |
| N#Cc1cncn1CC(=O)c1ccccc1Br [IX-127] | 90 to 100 | 1.79 |  |  |
| O=C(Cn1cncc1Cl)c1ccc(F)cc1Br [IX-35] |  | 1.57 |  | pest or weed control at 500 ppm [1]: 90 to 100% |
| N#Cc1cncn1CC(=O)c1ccccc1F [IX-113] | 70 to 79 | 1.65 |  |  |
| O=C(Cn1cncc1Cl)c1ccc(Oc2ccc(C(F)(F)F)cc2)c(Br)c1 [IX-16] | 90 to 100 | 3.29 |  |  |
| O=C(Cn1cncc1Br)c1ccc(Oc2ccc(Cl)cc2)cc1C(F)(F)F [IX-41] | 90 to 100 | 3.35 |  | pest or weed control at 500 ppm [4]: 80 to 89% |
| N#Cc1cncn1CC(=O)c1ccc(OC(F)(F)F)cc1 [IX-116] | 80 to 89 | 2.12 |  | pest or weed control at 500 ppm [1]: 80 to 89% |
| N#Cc1cncn1CC(=O)c1ccc(Oc2c(F)cc(Cl)cc2F)nc1C(F)(F)F [IX-124] | 90 to 100 | 3.28 |  |  |
| O=C(Cn1cncc1Br)c1ccc(Oc2ccc(Cl)nc2)nc1Cl [IX-27] | 90 to 100 | 2.13 |  | pest or weed control at 500 ppm [1]: 90 to 100% |
| CC(=O)c1cncn1CC(=O)c1ccc(Oc2ccc(Br)cc2)nc1C(F)(F)F [IX-122] | 90 to 100 | 3.31 |  | pest or weed control at 500 ppm [1]: 90 to 100% |
| COc1cc(F)ccc1C(=O)Cn1cncc1Cl [IX-11] | 90 to 100 | 1.34 |  |  |
| O=C(Cn1cncc1Br)c1ccc(Cl)cc1Cl [IX-20] | 90 to 100 | 1.94 |  | pest or weed control at 500 ppm [1]: 90 to 100% |
| O=C(Cn1cncc1Cl)c1ncc(Oc2ccccc2)cc1Cl [IX-01] | 80 to 89 | 2.44 |  |  |
| N#Cc1cncn1CC(=O)c1ccccc1Cl [IX-126] | 80 to 89 | 1.81 |  | pest or weed control at 500 ppm [1]: 70 to 79% |
| O=C(Cn1cncc1F)c1ccc(Oc2ccc(Br)nc2)nc1C(F)(F)F [IX-142] | 90 to 100 | 2.14 |  | pest or weed control at 500 ppm [1]: 90 to 100% |
| N#Cc1ccc(Oc2ccc(C(=O)Cn3cncc3Cl)c(Cl)c2)cc1 [IX-12] | 90 to 100 | 2.32 |  | pest or weed control at 500 ppm [1]: 90 to 100% |
| N#Cc1cncn1CC(=O)c1ccc(F)cc1 [IX-100, 3-[2-(4-fluorophenyl)-2-oxo-ethyl]imidazole-4-carbonitrile] | 90 to 100 | 1.58 |  | pest or weed control at 500 ppm [1]: 90 to 100% |
| N#Cc1cncn1CC(=O)c1ccccc1C(F)(F)F [IX-138] |  | 2.07 |  | pest or weed control at 500 ppm [1]: 90 to 100% |

| Compound | pest or weed control at 500 ppm [2] [%] | chromatographic logP [3] | LogP [3] | other results |
| --- | --- | --- | --- | --- |
| O=C(Cn1cncc1C(F)(F)F)c1ccc(Oc2ccc(I)cc2)cc1F [IX-49] | 90 to 100 | 4.16 |  | pest or weed control at 500 ppm [4]: 80 to 89% |
| N#Cc1cncn1CC(=O)c1ccc(C(F)(F)F)cc1 [IX-117] | 90 to 100 | 1.99 |  |  |
| O=C(Cn1cncc1Cl)c1ccc(Cl)cc1Cl [IX-19] | 90 to 100 | 1.94 |  | pest or weed control at 500 ppm [1]: 90 to 100% |
| N#Cc1cncn1CC(=O)c1ccc(Oc2ccc(Br)nc2)cc1Cl [IX-76] | 90 to 100 | 2.7 |  |  |
| CC(O)(Cn1cncc1Cl)c1ccc(Oc2ccc(OC(F)(F)F)cc2)cc1Cl (centres unmarked) [I-158] |  |  | 3.06^[a] |  |
| N#Cc1cncn1CC(O)(c1ccc(Cl)c(Cl)c1)C1(F)CC1 (centres unmarked) [I-487] |  |  | 2.51^[a] |  |
| COC(Cn1cncc1Cl)c1ccc(Oc2ccc(Cl)cc2)cc1C(F)F (centres unmarked) [I-75] |  |  | 3.15^[a] |  |
| N#Cc1cncn1CC(O)(CC1CC1)c1cc(Br)cc(Br)c1 (centres unmarked) [I-498] |  |  | 2.99^[a] |  |
| N#Cc1cncn1CC(O)(CC1CCCCC1)c1ccc(Cl)cc1F (centres unmarked) [I-468] |  |  | 3.80^[a] |  |
| N#Cc1cncn1CC(O)(c1ccccc1C(F)(F)F)C1CC1 (centres unmarked) [I-330] |  |  | 2.35^[a] |  |
| CC(C)CC(O)(Cn1cncc1C#N)c1ccc(Cl)cc1Cl (centres unmarked) [I-303] |  |  | 3.39^[a] |  |
| OC(Cn1cncc1Br)c1ccc(Oc2ccc(Cl)cc2)cc1 (centres unmarked) [I-18] |  |  | 2.23^[a] |  |
| COc1ccc(Oc2ccc(C(C)(O)Cn3cncc3Cl)c(Cl)n2)c(Cl)c1 (centres unmarked) [I-163] |  |  | 2.30^[a] |  |
| N#Cc1cncn1CC(O)(c1ccc(F)cc1)C1(Cl)CC1 (centres unmarked) [I-248] |  |  | 2.21^[a] |  |
| N#Cc1cncn1CC(=O)c1cnc(Oc2ccc(Cl)nc2)cc1C(F)(F)F [IX-141] | 90 to 100 | 2.62 |  | pest or weed control at 500 ppm [1]: 90 to 100% |
| N#Cc1cncn1CC(O)(c1cc(F)c(Cl)cc1F)C1(F)CC1 (centres unmarked) [I-580] |  |  | 2.45^[a] |  |
| COc1c(Cl)ccc(C(O)(Cn2cncc2C#N)C2(F)CC2)c1F (centres unmarked) [I-527] |  |  | 2.36^[a] |  |
| OC(Cn1cncc1F)(c1ccc(Cl)cc1F)C1(F)CC1 (centres unmarked) [I-437] |  |  | 1.57^[a] |  |
| N#Cc1cncn1CC(O)(c1c(F)ccc(Cl)c1Cl)C1(F)CC1 (centres unmarked) [I-565] |  |  | 2.39^[a] |  |
| CC(=O)c1cncn1CC(=O)c1cnc(Oc2ccc(C(F)F)cc2)cc1C(F)(F)F [IX-103] | 90 to 100 | 2.71 |  | pest or weed control at 500 ppm [1]: 90 to 100% |
| CCCC(O)(Cn1cncc1C#N)c1ccc(Cl)cc1Br (centres unmarked) [I-409] |  |  | 3.13^[a] |  |

| Compound | pest or weed control at 500 ppm [2] [%] | chromatographic logP [3] | LogP [3] | other results |
| --- | --- | --- | --- | --- |
| N#Cc1cncn1CC(O)(c1ccc(C2CC2C2CC2)cc1Cl)C1(F)CC1 (centres unmarked) [I-388] |  |  | 3.60^[a] |  |
| CC(C)(C)C(O)(C=CCC1CCCCC1)Cn1cncc1C#N (centres unmarked) [I-673] |  |  | 4.05^[a] |  |
| N#Cc1cncn1CC(O)(c1ccc(C(F)(F)F)cc1Cl)C1CC1 (centres unmarked) [I-418] |  |  | 2.98^[a] |  |
| OC(Cn1cncc1Cl)c1ccc(Oc2ccc(F)cc2)cc1Cl (centres unmarked) [I-03] |  |  | 2.28^[a] |  |
| NC(=S)c1cncn1CC(O)(c1ccc(Cl)cc1Br)C1(F)CC1 (centres unmarked) [I-505] |  |  | 1.92^[a] |  |
| N#Cc1cncn1CC(O)(c1cc(F)c(Cl)cc1Cl)C1(F)CC1 (centres unmarked) [I-578] |  |  | 2.59^[a] |  |
| CC(O)(Cn1cncc1C#N)c1ccc(Oc2ccc(Br)nc2)nc1C(F)(F)F (centres unmarked) [I-364] |  |  | 2.44^[a] |  |
| N#Cc1cncn1CC(O)(c1c(F)ccc(F)c1Cl)C1(F)CC1 (centres unmarked) [I-567] |  |  | 2.15^[a] |  |
| N#Cc1cncn1CC(O)(c1ccc(Cl)cc1C(F)(F)F)C1CC1 (centres unmarked) [I-464] |  |  | 2.78^[a] |  |
| CC(=O)c1cncn1CC(=O)c1cnc(Oc2ccc(Cl)cc2F)cc1C(F)(F)F [IX-102] |  | 3.21 |  |  |
| CCC(C)C(O)(Cn1cncc1C#N)c1ccc(Cl)cc1Cl (centres unmarked) [I-314] |  |  | 3.29^[a] |  |
| COc1ccc(C(O)(Cn2cncc2C#N)C2(F)CC2)c(Cl)n1 (centres unmarked) [I-549] |  |  | 1.99^[a] |  |
| N#Cc1cncn1CC(O)(c1cc(Cl)cc(F)c1Cl)C1(F)CC1 (centres unmarked) [I-571] |  |  | 2.52^[a] |  |
| N#Cc1cncn1CC(O)(c1cc(F)cc(Cl)c1)C1(F)CC1 (centres unmarked) [I-474] |  |  | 2.38^[a] |  |
| N#Cc1cncn1CC(O)(CC1CC1)c1ccc(F)c(Cl)c1 (centres unmarked) [I-485] |  |  | 2.52^[a] |  |
| N#Cc1cncn1CC(O)(c1ccc(Cl)c(F)c1F)C1(F)CC1 (centres unmarked) [I-637] |  |  | 2.41^[a] |  |
| CC1(C(O)(Cn2cncc2C#N)c2ccc(Cl)cc2F)CC1 (centres unmarked) [I-441] |  |  | 2.68^[a] |  |
| CC(C)(C)CC(O)(Cn1cncc1C#N)c1ccccc1 (centres unmarked) [I-242] |  |  | 2.77^[a] |  |
| N#Cc1cncn1CC(O)(c1ccc(C#CC2CCCC2)cc1Cl)C1(F)CC1 (centres unmarked) [I-640] |  |  | 4.01^[a] |  |
| N#Cc1cncn1CC(O)(CC1CC1)c1ccc(Cl)c(Br)c1 (centres unmarked) [I-533] |  |  | 2.86^[a] |  |
| C#CCOC(Cn1cncc1F)c1ccc(Oc2ccc(Cl)cc2)cc1C(F)(F)F (centres unmarked) [I-106] |  |  | 3.26^[a] |  |
